Laboratory results: US20230047788A1, “COMPOSITIONS COMPRISING 5-CHOLESTEN-3, 25-DIOL, 3-SULFATE (25HC3S) OR PHARMACEUTICALLY ACCEPTABLE SALT THEREOF AND AT LEAST ONE CYCLIC OLIGOSACCHARIDE” (Virginia Commonwealth University, priority 2016, published 2023)
Where “and” joins values, the source holds several entries; their conditions need not be identical. Equal values may be shown once.

Test: Infusion compatibility of constituted 25HC3S solution with 5% dextrose, 0.9% sodium chloride and two infusion sets
Type: physicochemical
Settings: for % Remaining after infusion set / Concentration after infusion set / Osmolality after infusion set / pH after infusion set: 0.9% NaCl
Experimental: After constitution with Vehicle, the 30 mg/mL 25HC3S product was diluted into 100 mL of 5% dextrose injection, USP or 0.9% sodium chloride injection, USP, and was administered to subjects as an IV infusion ranging from a 30 mg to 150 mg 25HC3S dose. This was accomplished by adding 1.0 mL (for the 30 mg dose) or 5.0 mL (for the 150 mg dose), or any volume in between, of the 30 mg/mL 25HC3S product into a 100 mL dextrose or sodium chloride infusion bag. The entire admixture content in the infusion bag was infused into the subject over approximately 2 hours at a rate of 50 mL/hour.
A physical and chemical compatibility study was conducted at a 30 mg, 48 mg and 300 mg 25HC3S dose in 5% dextrose and 0.9% sodium chloride infusion bags. Descriptions of the two kinds of infusion sets tested with 25HC3S product diluted in 5% dextrose and 0.9% sodium chloride are listed in Table 15. The tubing in catalog number 2H8480 infusion set was composed of polyvinylchloride (PVC), while the tubing in catalog number 2C8858 was polyethylene lined except for a short pump segment (approximately 12 inches) which was composed of PVC.
25HC3S for Injection and Vehicle for 25HC3S for Injection, that had been stored at 2-8° C. for approximately 16 months, were used for the compatibility study. After constitution, 30 mg (1.0 mL of constituted product), 48 mg (1.6 mL of constituted product) or 300 mg (10 mL of constituted product) were added to 100 mL infusion bags of 5% dextrose and 0.9% sodium chloride, mixed thoroughly, and stored for 24 hours at room temperature and at 2-8° C. […] Taking into consideration the overfill per infusion bag and the additional volume introduced by adding the constituted 25HC3S product to each bag, the expected concentrations of 25HC3S were 0.28 mg/mL, 0.44 mg/mL, and 2.56 mg/mL in the infusion bags. Two kinds of infusion sets were then attached to the drug containing infusion bags, and the entire contents were eluted through the infusion sets at approximately 50 mL/hour at room temperature. Samples were collected from the 25HC3S prepared infusion bags at T=0 and at 24 hours, and from the total eluent passed through the infusion sets, and tested for 25HC3S concentration using HPLC. Solution visual appearance, osmolality (using method USP<785>), and pH (using method USP<791>) were also measured on the collected samples.

[1] = ~0.28 mg/mL, 24 h 2-8°C then Baxter 2C8858
[2] = ~0.28 mg/mL, 24 h 2-8°C then Baxter 2H8480
[3] = ~0.28 mg/mL, 24 h RT then Baxter 2C8858
[4] = ~0.28 mg/mL, 24 h RT then Baxter 2H8480
[5] = ~0.44 mg/mL, 24 h 2-8°C then Baxter 2C8858
[6] = ~0.44 mg/mL, 24 h 2-8°C then Baxter 2H8480
[7] = ~0.44 mg/mL, 24 h RT then Baxter 2C8858
[8] = ~0.44 mg/mL, 24 h RT then Baxter 2H8480
[9] = ~2.56 mg/mL, 24 h 2-8°C then Baxter 2C8858
[10] = ~2.56 mg/mL, 24 h 2-8°C then Baxter 2H8480
[11] = ~2.56 mg/mL, 24 h RT then Baxter 2C8858
[12] = ~2.56 mg/mL, 24 h RT then Baxter 2H8480
[13] = 0.9% sodium chloride bag, ~0.28 mg/mL, 24 Hours at 2-8°C
[14] = 0.9% sodium chloride bag, ~0.28 mg/mL, 24 Hours at RT
[15] = 0.9% sodium chloride bag, ~0.28 mg/mL, T = 0
[16] = 0.9% sodium chloride bag, ~0.44 mg/mL, 24 Hours at 2-8°C
[17] = 0.9% sodium chloride bag, ~0.44 mg/mL, 24 Hours at RT
[18] = 0.9% sodium chloride bag, ~0.44 mg/mL, T = 0
[19] = 0.9% sodium chloride bag, ~2.56 mg/mL, 24 Hours at 2-8°C
[20] = 0.9% sodium chloride bag, ~2.56 mg/mL, 24 Hours at RT
[21] = 0.9% sodium chloride bag, ~2.56 mg/mL, T = 0

**Q.** For C[C@H](CCCC(C)(C)O)[C@H]1CC[C@H]2[C@@H]3CC=C4C[C@@H](OS(=O)(=O)[O-])CC[C@]4(C)[C@H]3CC[C@]12C.[Na+] [25HC3S, 5-cholesten-3, 25-diol, 3-sulfate], which “% Remaining after infusion set” value [1] is on record?
**A.** (100.0%)

**Q.** What about the “Concentration after infusion set” value [1] of the same molecule?
**A.** 275 µg/mL

**Q.** What about the “Osmolality after infusion set” value [1] of the same molecule?
**A.** 276 mmol/kg

**Q.** And the “pH after infusion set” value [1]?
**A.** 5.78

**Q.** What about the “% Remaining after infusion set” value [2] of the same molecule?
**A.** (100.4%)

**Q.** And the “Concentration after infusion set” value [2]?
**A.** 275 µg/mL

**Q.** And the “Osmolality after infusion set” value [2]?
**A.** 277 mmol/kg

**Q.** What about the “pH after infusion set” value [2] of the same molecule?
**A.** 5.81

**Q.** And the “% Remaining after infusion set” value [3]?
**A.** (100.0%)

**Q.** What about the “Concentration after infusion set” value [3] of the same molecule?
**A.** 274 µg/mL

**Q.** What about the “Osmolality after infusion set” value [3] of the same molecule?
**A.** 276 mmol/kg

**Q.** What about the “pH after infusion set” value [3] of the same molecule?
**A.** 5.83

**Q.** And the “% Remaining after infusion set” value [4]?
**A.** (99.6%)

**Q.** What about the “Concentration after infusion set” value [4] of the same molecule?
**A.** 272 µg/mL

**Q.** And the “Osmolality after infusion set” value [4]?
**A.** 276 mmol/kg

**Q.** And the “pH after infusion set” value [4]?
**A.** 5.78

**Q.** And the “% Remaining after infusion set” value [5]?
**A.** (100.2%)

**Q.** And the “Concentration after infusion set” value [5]?
**A.** 426 µg/mL

**Q.** What about the “Osmolality after infusion set” value [5] of the same molecule?
**A.** 281 mmol/kg

**Q.** What about the “pH after infusion set” value [5] of the same molecule?
**A.** 7.16

**Q.** And the “% Remaining after infusion set” value [6]?
**A.** (100.0%)

**Q.** What about the “Concentration after infusion set” value [6] of the same molecule?
**A.** 434 µg/mL

**Q.** And the “Osmolality after infusion set” value [6]?
**A.** 282 mmol/kg

**Q.** What about the “pH after infusion set” value [6] of the same molecule?
**A.** 7.13

**Q.** And the “% Remaining after infusion set” value [7]?
**A.** (100.0%)

**Q.** And the “Concentration after infusion set” value [7]?
**A.** 424 µg/mL

**Q.** What about the “Osmolality after infusion set” value [7] of the same molecule?
**A.** 288 mmol/kg

**Q.** And the “pH after infusion set” value [7]?
**A.** 7.20

**Q.** What about the “% Remaining after infusion set” value [8] of the same molecule?
**A.** (99.8%)

**Q.** And the “Concentration after infusion set” value [8]?
**A.** 433 µg/mL

**Q.** And the “Osmolality after infusion set” value [8]?
**A.** 286 mmol/kg

**Q.** What about the “pH after infusion set” value [8] of the same molecule?
**A.** 7.09

**Q.** And the “% Remaining after infusion set” value [9]?
**A.** (99.8%)

**Q.** And the “Concentration after infusion set” value [9]?
**A.** 2520 µg/mL

**Q.** And the “Osmolality after infusion set” value [9]?
**A.** 283 mmol/kg

**Q.** What about the “pH after infusion set” value [9] of the same molecule?
**A.** 5.70

**Q.** What about the “% Remaining after infusion set” value [10] of the same molecule?
**A.** (100.0%)

**Q.** What about the “Concentration after infusion set” value [10] of the same molecule?
**A.** 2530 µg/mL

**Q.** And the “Osmolality after infusion set” value [10]?
**A.** 283 mmol/kg

**Q.** What about the “pH after infusion set” value [10] of the same molecule?
**A.** 5.72

**Q.** What about the “% Remaining after infusion set” value [11] of the same molecule?
**A.** (99.6%)

**Q.** And the “Concentration after infusion set” value [11]?
**A.** 2520 µg/mL

**Q.** What about the “Osmolality after infusion set” value [11] of the same molecule?
**A.** 279 mmol/kg

**Q.** And the “pH after infusion set” value [11]?
**A.** 5.83

**Q.** What about the “% Remaining after infusion set” value [12] of the same molecule?
**A.** (100.4%)

**Q.** And the “Concentration after infusion set” value [12]?
**A.** 2460 µg/mL

**Q.** And the “Osmolality after infusion set” value [12]?
**A.** 283 mmol/kg

**Q.** And the “pH after infusion set” value [12]?
**A.** 5.81

**Q.** What about the Concentration [13] of the same molecule?
**A.** 275 µg/mL

**Q.** What about the Osmolality [13] of the same molecule?
**A.** 276 mmol/kg

**Q.** And the pH [13]?
**A.** 5.87 and 5.99

**Q.** What about the Concentration [14] of the same molecule?
**A.** 272 µg/mL and 274 µg/mL

**Q.** What about the Osmolality [14] of the same molecule?
**A.** 275 mmol/kg and 277 mmol/kg

**Q.** And the pH [14]?
**A.** 5.93 and 5.92

**Q.** And the Osmolality [15]?
**A.** 278 mmol/kg and 277 mmol/kg

**Q.** What about the “T = 0 Conc.” value [15] of the same molecule?
**A.** 0.273 mg/mL and 0.274 mg/mL and 0.275 mg/mL

**Q.** And the pH [15]?
**A.** 6.39 and 6.43 and 6.45 and 6.40

**Q.** What about the “% Remaining Compared to T = 0” value [16] of the same molecule?
**A.** (100.0%)

**Q.** What about the Concentration [16] of the same molecule?
**A.** 434 µg/mL and 425 µg/mL

**Q.** And the Osmolality [16]?
**A.** 281 mmol/kg

**Q.** And the pH [16]?
**A.** 7.43 and 7.19

**Q.** What about the “% Remaining Compared to T = 0” value [17] of the same molecule?
**A.** (100.0%)

**Q.** And the Concentration [17]?
**A.** 434 µg/mL and 424 µg/mL

**Q.** What about the Osmolality [17] of the same molecule?
**A.** 280 mmol/kg

**Q.** What about the pH [17] of the same molecule?
**A.** 7.33 and 7.41

**Q.** What about the Osmolality [18] of the same molecule?
**A.** 277 mmol/kg and 279 mmol/kg and 284 mmol/kg and 280 mmol/kg

**Q.** And the “T = 0 Conc.” value [18]?
**A.** 0.434 mg/mL and 0.424 mg/mL and 0.425 mg/mL

**Q.** And the pH [18]?
**A.** 7.30 and 7.43 and 7.21 and 7.44

**Q.** And the Concentration [19]?
**A.** 2510 µg/mL and 2520 µg/mL

**Q.** What about the Osmolality [19] of the same molecule?
**A.** 283 mmol/kg

**Q.** And the pH [19]?
**A.** 5.93 and 5.96

**Q.** And the Concentration [20]?
**A.** 2500 µg/mL and 2525 µg/mL

**Q.** What about the Osmolality [20] of the same molecule?
**A.** 282 mmol/kg

**Q.** What about the pH [20] of the same molecule?
**A.** 6.01 and 5.86

**Q.** What about the Osmolality [21] of the same molecule?
**A.** 282 mmol/kg and 281 mmol/kg

**Q.** And the “T = 0 Conc.” value [21]?
**A.** 2.450 mg/mL and 2.530 mg/mL and 2.525 mg/mL

**Q.** And the pH [21]?
**A.** 6.20 and 6.10 and 6.07 and 6.11

**Q.** What about the “deviation of concentrations from initial T=0 time point” value (0.9% sodium chloride, 24 hours at RT and 2-8°C and after elution through infusion sets) of the same molecule?
**A.** ≤ 2.0%

**Q.** And the Concentration (5% dextrose bag, ~0.28 mg/mL, 24 Hours at 2-8°C)?
**A.** 280 µg/mL
